From patent publication US10376577B2, “Refined product obtained from rice hull and preparation process and use thereof” (China Medical University, priority 2014, dated 2019) come the findings set out here.

The data set concerns CT26 cells. In words: Synergistic anticancer effect of refined product and 5-FU on colon carcinoma cells. In kind it is in vivo, mouse. The following applies: BALB/c mice with subcutaneous CT26, end of 3rd week, treatments per Table 8, mean ± S.D. The source says:
The male BALB/c mice were randomly divided into the following groups (n=8 for each group): a normal control group, a pathological control group, a 5-FU group, and a synergy group. 1×10^6 CT26 cells were subcutaneously injected into the leg of each mouse in the pathological control group, the 5-FU group, and the synergy group. The mice in the normal control group received no CT26 cells.
After the injection of CT26 cells, the mice in the 5-FU group, the synergy group, and the pathological control group were subjected to the treatments shown in Table 8 until the end of the 3rd week after the injection of CT26 cells. The mice in the normal control group received no treatment.
At the end of the 3rd week after the injection of CT26 cells, the mice in each group were anesthetized using CO2, and blood was collected from the celiac vein. The blood collected was subjected to total white blood cell counting using an automated hematology analyzer (Sysmex, KX-21 N). Besides, tumors were collected and weighted.

As to `O=c1[nH]cc(F)c(=O)[nH]1` [5-FU, 5-fluorouracil], the Tumor weight (pathological control 4.10 ± 0.92) is listed as 3.19 ± 1.47. Further, for the setting “pathological control 6.59 ± 1.46”, the “Number of total white blood cells” value is listed as 4.46 ± 0.77.
